Results on one substance are retold here after patent US6921811B2, “Bioactive coating composition and methods” (BioSurface Engineering Technologies, Inc., priority 1998, dated 2005).

Assay [1] deals with GS-9L cells (rat gliosarcoma). Put plainly: Cell attachment, spreading and growth on coated low-attachment polystyrene wells. In kind it is cell-based. The note with it: 10^4 cells/well, serum-containing medium. An excerpt:
(§1) Several cell types were used, including GS-9L cells (rat gliosarcoma), C3H10T1/2 (murine fibroblasts), Jurkat (human T cell), bovine aorta endothelial (BAE) cells and rat lymphocytes. GS-9L and C3H10T1/2 cells were maintained in log phase growth and detached from cultureware using Versene and collected by centrifugation. Jurkat cells grew as single cell suspensions and were collected by centrifugation. Rat lymphocytes were collected from heparinized blood by density gradient isolation over Ficoll-Hypaque® media. The collected cells were rinsed once by low speed centrifugation and suspended in either serum-free Dulbecco's Modified Eagles Medium (DMEM) containing pyruvate or RPMI 1640 containing 10% fetal bovine serum (FBS) supplemented with pyruvate. Aliquots of 10^4 cells in 100 μL were used in subsequent adhesion studies.
(§2) The cells were examined after plating using an inverted, phase-contrast microscope. At selected time points up to 4 days after initial seeding, the cells were rinsed three times in saline and fixed in buffered 10% formalin or 35% ethanol. In some cases, the cells were stained in situ with a 0.01 % aqueous solution of crystal violet. The amount of attachment was scored visually or quantitated. To establish the relative number of cells bound, crystal violet stained cells were dissolved in a solution of 70% ethanol containing 0.1% sodium dodecyl sulfate and 0.38 M Tris and the absorbance monitored at 610 nm, using the methods of Scragg and Ferreira (Anal Biochem 198:80-5, 1991) and Grando et al. (Skin Pharmacol 6:135-47, 1993).
(§3) The cells of Example 7 were added to untreated polystyrene wells, wells coated with silyl-heparin as in Example 4, with silyl-heparin-fibronectin as in Example 5, and with only fibronectin by incubation as described in Example 5. […] Cells were seeded at a concentration of 10^4 cells/well in serum-containing medium.
(§4) The cells grew to confluency by 4 days. […] No effort was made to grow the cells in a defined- or serum-low medium known to support growth.

Assay [2] relates to bovine aorta endothelial (BAE) cells. The assay is described as above. In kind it is cell-based. The note with it: 10^4 cells/well, serum-containing medium.
Excerpt: as §1, §2, §3, §4

The subject of assay [3] is C3H10T1/2 (murine fibroblasts). The assay is described as above. In kind it is cell-based. The note with it: C3H10T1/2; coated low-attachment polystyrene wells; 10^4 cells/well; serum-containing medium.
Excerpt: as §1, §2, §3
The cells grew to confluency by 4 days. […] No effort was made to grow the cells in a defined- or serum-low medium known to support growth. […]

The subject of another assay is Jurkat (human T cell). Put plainly: Cell attachment on coated low-attachment polystyrene wells. In kind it is cell-based. The note with it: 10^4 cells/well, serum-containing medium.
Excerpt: as §1
(§5) The cells were examined after plating using an inverted, phase-contrast microscope. […] The amount of attachment was scored visually or quantitated. To establish the relative number of cells bound, crystal violet stained cells were dissolved in a solution of 70% ethanol containing 0.1% sodium dodecyl sulfate and 0.38 M Tris and the absorbance monitored at 610 nm, using the methods of Scragg and Ferreira (Anal Biochem 198:80-5, 1991) and Grando et al. (Skin Pharmacol 6:135-47, 1993). […]

A further assay has as its system rat lymphocytes. The description is as above. In kind it is cell-based. The note with it: 10^4 cells/well, serum-containing medium.
Excerpt: as §1, §5

Assay [4] concerns C3H10T1/2 cells. Briefly: C3H10T1/2 cell attachment to a variety of coated substrates. In kind it is cell-based, murine. On the procedure:
as §2
The general applicability of silyl-heparin-fibronectin complex was evaluated by applying this coating using the methods of Examples 4 and 5 to a variety of surfaces, including polystyrene, polylactide:polyglycolide, polycaprolactone, polyurethane and stainless steel. […] They did, however, bind moderately well to polylactide:polyglycolide and to polycaprolactone, and very well to stainless steel.

The test system of assay [5] is C3H10T1/2 cells. Briefly: Cross-titration of fibronectin and silyl-heparin needed to support cell attachment. The note with it: silyl-heparin titrated from 30 μg/well, fibronectin then applied at 4 μg/well; 24 hours; crystal violet, 610 nm. In kind it is cell-based, murine. Here is the method: The optimal amount of fibronectin and silyl-heparin to support attachment of C3H10T1/2 cells was determined by cross-titration, as shown on FIG. 1. […] The fall-off for the silyl-heparin was more gradual. The curve of the relative amount of silyl-heparin on the substrate following serial dilution generally followed the cell attachment curve.
In FIG. 1, fibronectin (Δ—Δ) or silyl-heparin (•—•) were titrated to determine the quantity needed to support attachment of C3H10T1/2 cells. All dilutions were performed in quadruplicate in wells of 96-well plates of low-attachment polystyrene. For titration of fibronectin, silyl-heparin was applied at 30 μg/well in 70% ethanol as in Example 4. After rinsing, fibronectin was applied in doubling dilutions of phosphate buffered saline starting from 4 μg/well. For titration of silyl-heparin, silyl-heparin was applied in doubling dilutions in 70% ethanol starting from silyl-heparin concentrations of 30 μg/well. Fibronectin was then applied in saline at 4 μg/well. Cells were at a concentration of 10^4 cells/well in growth medium. For both experiments, the cells were allowed 24 hours to attach and then were rinsed and fixed in buffered formalin. The cells were stained for 5 minutes with 0.01% aqueous crystal violet and the absorbance at 610 nm determined.

The next assay addresses T1, antithrombin/factor Xa (Homo sapiens, UniProt P01008).
T1 construct: purchased Sigma Diagnostics Procedure No. CRS 106
Put plainly: Loading efficiency of silyl-heparin complexes on materials, heparin-specific assays. It counts as biochemical. The note with it: varied by substrate material (polystyrene, polycarbonate, polyurethane, stainless steel, titanium and others). An excerpt: Using contacting surfaces coated with silyl-heparin as in Example 4, and to which silyl-heparin-fibronectin was attached as in Example 5, the presence of both heparin and fibronectin was detected in analytical assays. Heparin was detected using a commercially-available an enzyme-linked assay kit (Sigma Chemical Co., St. Louis) that measured the heparin-induced inhibition of antithrombin/factor Xa as measured with a factor Xa specific chromogenic substrate. The enzyme-inhibition assay was performed in low-attachment 96 well plates following the directions of the manufacturer.
In related studies, heparin-specific assays and diemethylene blue dye uptake were used to establish that silyl-heparin complexes could be bound to a variety of materials including polystyrene, hydrogel-coated polystyrene, polycarbonate, polyurethane, poly caprolactone, polyvinylchloride, stainless steel and titanium. The loading efficiency of silyl-heparin complexes varied by substrate material, but was generally in the range of 10-40 mlU of heparin per cm^2.

For assay [6], the system named is thigh muscle of adult rats. Briefly: Coated Vicryl sutures implanted in muscle, histology. The note with it: two weeks; compared to control suture. It counts as in vivo. An excerpt:
Vicryl suture material was coated using a solution containing silyl-heparin complex or a solution containing silyl-heparin complex followed by immersion in bFGF as described above. The suture material was then rinsed extensively, air-dried, mounted on 16 gage needles and stored until use, typically overnight. Under anesthesia, the sutures were passed through the thigh muscle of adult rats and secured with knots and surgical clips. After two weeks the animals were euthanized and the sutured area removed, fixed in formalin, and processed by standard histological methods.

T1 sequence (P01008 33-464): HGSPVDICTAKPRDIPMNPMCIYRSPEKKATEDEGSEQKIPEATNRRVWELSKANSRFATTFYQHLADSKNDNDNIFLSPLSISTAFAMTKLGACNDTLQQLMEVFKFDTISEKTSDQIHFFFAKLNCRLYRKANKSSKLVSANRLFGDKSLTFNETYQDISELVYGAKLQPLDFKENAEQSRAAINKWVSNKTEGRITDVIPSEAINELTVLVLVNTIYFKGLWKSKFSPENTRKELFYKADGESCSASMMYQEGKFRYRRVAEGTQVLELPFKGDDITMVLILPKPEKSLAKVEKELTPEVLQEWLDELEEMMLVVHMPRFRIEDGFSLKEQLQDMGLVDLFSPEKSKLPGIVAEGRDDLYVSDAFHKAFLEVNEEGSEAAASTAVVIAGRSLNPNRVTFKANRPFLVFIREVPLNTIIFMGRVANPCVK

As to “benzyl-(1,2 dimethyl)disilyl heparin [silyl-heparin]”, the “CELL ATTACHMENT” value (in [1]; in assay [2]; in [3]; with Jurkat (human T cell); with rat lymphocytes) was “did not attach” throughout. For the same substance, the “C3H10T1/2 cell attachment on prolonged culture” value with C3H10T1/2 cells [4] (cells cultured for up to 4 days) is “no cell attachment was evident”. The “effect of coating or treatment on C3H10T1/2 cell attachment” value in the assay on C3H10T1/2 cells [4] (regardless of the substrate) is given as “essentially eliminated cell attachment”. Besides, the “C3H10T1/2 CELL ATTACHMENT” value in the assay on C3H10T1/2 cells [4] (surface: Stainless steel, determined by crystal violet staining) is given as “inhibition of cell attachment was noted”. Also, the “EC50 to support attachment of C3H10T1/2 cells” value in the assay with C3H10T1/2 cells [5] is recorded as “about 8.7 μg/well”. Further, the “loading efficiency of silyl-heparin complexes” value at antithrombin/factor Xa was 10-40 mlU of heparin per cm^2. Also, the “diameter or area of granulation tissue surrounding the suture” value in assay [6] is reported as “tended to have a smaller area of granulation”.
